US20080306257A1, “Syntheses and Preparations of Narwedine and Related Novel Compounds” (priority 2005, published 2008)

Columns and labels:
Format in all cases: physicochemical
[1] = epimerization of (−)-galanthamine under acidic conditions; details: under acidic conditions (presence of hydrobromic acid)
Procedure: (§1) It has been further observed that (−)-galanthamine hydrobromide can be further purified with high yield and without degradation of the material by crystallization in water in the presence of ammonium bromide. Lower yields are obtained using water in the absence of ammonium bromide due to the high solubility of (−)-galanthamine hydrobromide in water (about 50 mg/mL at room temperature and 300 mg/mL at reflux temperature).

[2] = racemization in THF solution; details: THF solution at approximately 0° C.
Procedure: Advantage of this aspect of invention include, among others, the reduction reaction of (−)-narwedine-BF3 complex can be carried out at approximately 0° C.

[3] = solubility of (−)-galanthamine hydrobromide in water
Procedure: as §1

For `COc1ccc2c3c1O[C@H]1C[C@@H](O)C=C[C@@]31CCN(C)C2` [(−)-galanthamine, (4aS,6R,8aS)-4a,5,9,10,11,12-hexahydro-3-methoxy-11-methyl-6H-benzofuro[3a,3,2-ef][2]benzazepin-6-ol], the “epimerization to (−)-epigalanthamine (stability)” value [1] was “rapidly epimerized”.

In the case of “(−)-narwedine-BF3 complex [(−)-narwedine.BF3 complex]”, the “racemization (configurational stability)” value [2] was “racemizes very slowly”.

With `Br.COc1ccc2c3c1O[C@H]1C[C@@H](O)C=C[C@@]31CCN(C)C2` [(−)-galanthamine hydrobromide] the solubility in water ([3]; at reflux temperature) was about 300 mg/mL and the solubility in water ([3]; at room temperature) was “about 50 mg/mL”.
